We go through 10 compounds from ChEMBL document CHEMBL1201862, “PubChem BioAssay data set” (2004).

Among the test systems are CAKI-1; HOP-92; EKVX; HCC 2998; SNB-75; SK-MEL-5; MCF7; HCT-15; T47D; TK-10; 786-0; ACHN; OVCAR-4; HOP-62; MDA-MB-435; KM12; IGROV-1; NCI-H23; SK-OV-3; HT-29.
What all share (assay): DTP human tumour cell line panel, 48 h

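In this assay, cells in 96-well plates receive the compound at five concentrations for 48 hours. Endpoints are linearly interpolated between the surrounding concentrations. GI50 is the concentration that inhibits growth by half.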 Calls of active or inactive are those of the source. Rule as the data show it: active = GI50 up to about 1.1 µM and inactive = higher. Square brackets hold non-standard residues; d marks the D form. Peptide text beside a SMILES is read from it. * marks the point of attachment. ξ: configuration not given here. Propanoyl(3-(4-MeO-Ph)) = COc1ccc(CCC(=O)*)cc1; Thr(3ξ) = CC(O)[C@H](N)C(=O)O; dNMeL = CN[C@H](CC(C)C)C(=O)O; ξLac = CC(O)C(=O)O Bounds are passed on as bounds.

Regarding `NC(=O)C/C=C/CC(N)=O`, the GI50 with CAKI-1, with HOP-92, with EKVX, in the test with HCC 2998, with SNB-75 and in the test with SK-MEL-5 was > 100 µM (inactive) throughout. Besides, the GI50 in the test with MCF7 is > 100 µM (inactive); in the test on HCT-15, greater than 100 µM; in the test with T47D, > 100 µM (inactive); with TK-10 it was > 100 µM (inactive); in the test with 786-0, > 100 µM (inactive); in the test on ACHN, > 100 µM (inactive). Moreover, the GI50 in the test on OVCAR-4, in the test with HOP-62, in the test on MDA-MB-435, in the test on KM12, with IGROV-1 and in the test on NCI-H23 was > 100 µM (inactive) each time. Besides, the GI50 in the test with SK-OV-3 and in the test with HT-29 was > 100 µM (inactive) in each case.
Consider `Cc1cc(-c2nc3ccccc3s2)ccc1N`, for which the GI50 in the test on CAKI-1 was 43.7 µM (inactive); with HOP-92, > 100 µM (inactive); in the test on EKVX it was 26.6 µM (inactive); in the test on HCC 2998 it was 5.98 µM (inactive); in the test on SNB-75, 35.3 µM (inactive); in the test on SK-MEL-5, 21.9 µM (inactive). Besides, the 50% growth inhibitory concentration (GI50) was < 0.0133 µM (active) with MCF7; 42.3 µM in the test with HCT-15; 0.0322 µM (active) in the test on T47D; 0.0302 µM (active) in the test on TK-10; 57.8 µM (inactive) in the test on 786-0; 45.4 µM (inactive) with ACHN. The GI50 in the test with OVCAR-4 is 4.98 µM (inactive); in the test on HOP-62, 49.9 µM (inactive); in the test with MDA-MB-435 it was 56.9 µM (inactive); in the test with KM12 it was 42.5 µM (inactive); in the test on IGROV-1 it was 0.0219 µM (active); in the test with NCI-H23 it was 40.4 µM (inactive). Moreover, the GI50 in the test with SK-OV-3 is 55.5 µM (inactive); with HT-29, 40.3 µM (inactive).
As for `CCc1cc2c(c3c1CCCC3=O)CC1(Cc3ccc(C(=O)OC)cc3C1)C2` (stereo not drawn), the GI50 in the test on CAKI-1 is 96.6 µM (inactive); with HOP-92, 29.1 µM (inactive); with EKVX it was 96.6 µM (inactive); in the test with HCC 2998, 93.1 µM (inactive); in the test with SNB-75, 26.7 µM (inactive); in the test with SK-MEL-5 it was 15 µM (inactive). Further, the GI50 in the test with MCF7 was 24 µM (inactive); in the test with HCT-15, greater than 100 µM; with T47D it was 65.2 µM (inactive); in the test on TK-10 it was > 100 µM (inactive); in the test with 786-0, 84.5 µM (inactive); with ACHN, 25.6 µM (inactive). Also, the GI50 in the test on OVCAR-4 is 40.9 µM (inactive); in the test on HOP-62, > 100 µM (inactive); in the test with MDA-MB-435, 37.2 µM (inactive); in the test on KM12, 30.6 µM (inactive); in the test with IGROV-1, > 100 µM (inactive); with NCI-H23, 85.7 µM (inactive). Besides, the GI50 in the test with SK-OV-3 was > 100 µM (inactive); with HT-29, 68.1 µM (inactive).
As for `CC(=O)NNc1nc(C)c(C(/C=C/c2ccc3c(c2)OCO3)=N/NC(=O)c2ccncc2)s1`, the GI50 was > 100 µM (inactive) in the test with CAKI-1; > 100 µM (inactive) with HOP-92; 62.5 µM (inactive) with EKVX; > 100 µM (inactive) in the test with HCC 2998; > 100 µM (inactive) with SNB-75; > 100 µM (inactive) in the test on SK-MEL-5. Besides, the GI50 with MCF7 is > 100 µM (inactive); in the test on HCT-15, greater than 100 µM; in the test with T47D, > 100 µM (inactive); with TK-10, > 100 µM (inactive); in the test on 786-0, > 100 µM (inactive); with ACHN it was > 100 µM (inactive). In addition, the GI50 in the test with OVCAR-4, in the test on HOP-62, in the test on MDA-MB-435, in the test with KM12, in the test with IGROV-1 and in the test on NCI-H23 was > 100 µM (inactive) each time. Moreover, the GI50 in the test on SK-OV-3 and in the test on HT-29 was > 100 µM (inactive) in each case.
Consider `COC(=O)[C@@H](NC(=O)[C@@H](CC(C)C)N(C)C(=O)[C@@H]1CCCN1C(=O)C(C)O)C(C)OC(=O)CCc1ccc(OC)cc1` (stereo partly drawn) (H-[ξLac]P[dNMeL][Thr(3ξ)](Propanoyl(3-(4-MeO-Ph)))-OMe), for which the GI50 in the test with CAKI-1, with HOP-92, in the test with EKVX, in the test on HCC 2998, in the test with SNB-75 and in the test with SK-MEL-5 was > 100 µM (inactive) each time. For the same compound, the GI50 was > 100 µM (inactive) in the test with MCF7; greater than 100 µM in the test on HCT-15; > 100 µM (inactive) in the test with T47D; > 100 µM (inactive) in the test on TK-10; > 100 µM (inactive) in the test on 786-0; > 100 µM (inactive) in the test with ACHN. Further, the GI50 in the test with OVCAR-4, in the test on HOP-62, in the test on MDA-MB-435, in the test with KM12, in the test with IGROV-1 and with NCI-H23 was > 100 µM (inactive) in each case. Moreover, the GI50 in the test with SK-OV-3 and with HT-29 was > 100 µM (inactive) in each case.
As to `CCCC(=O)Nc1ncnc2c1ncn2C1OC2COP(=O)(O)OC2C1OC(=O)CCC` (stereo not drawn), the GI50 with CAKI-1 is > 100 µM (inactive); with HOP-92 it was > 1000 µM (inactive); in the test on EKVX, > 100 µM (inactive); in the test with HCC 2998 it was > 100 µM (inactive); in the test with SNB-75, 0.0246 µM (active); in the test on SK-MEL-5, > 100 µM (inactive). Moreover, the GI50 in the test on MCF7 is > 100 µM (inactive); in the test on HCT-15, greater than 100 µM; in the test on T47D it was > 100 µM (inactive); in the test on TK-10, > 1000 µM (inactive); in the test with 786-0, > 100 µM (inactive); with ACHN, > 100 µM (inactive). The GI50 was > 100 µM (inactive) in the test on OVCAR-4; > 100 µM (inactive) in the test with HOP-62; > 100 µM (inactive) in the test on MDA-MB-435; > 100 µM (inactive) in the test on KM12; 22.5 µM (inactive) with IGROV-1; > 100 µM (inactive) with NCI-H23. In addition, the GI50 in the test on SK-OV-3 and with HT-29 was > 100 µM (inactive) throughout.
As to `COC(=O)Nc1nc2ccccc2[nH]1` [CARBENDAZIM], the GI50 in the test with CAKI-1 was 11.4 µM (inactive); in the test on HOP-92, > 100 µM (inactive); with EKVX it was > 52.7 µM (inactive); with HCC 2998, 5.37 µM (inactive); in the test with SNB-75, 9.38 µM (inactive); in the test with SK-MEL-5 it was 6.03 µM (inactive). In addition, the GI50 in the test on MCF7 is 5.07 µM (inactive); in the test with HCT-15, 3.37 µM; in the test with T47D, 9.51 µM (inactive); with TK-10, > 49.2 µM (inactive); in the test with 786-0, 9.53 µM (inactive); in the test with ACHN, > 56.1 µM (inactive). Further, the GI50 was > 47.4 µM (inactive) with OVCAR-4; 11.1 µM (inactive) in the test with HOP-62; 2.34 µM (inactive) in the test on MDA-MB-435; 4.26 µM (inactive) with KM12; 8.17 µM (inactive) with IGROV-1; 14.2 µM (inactive) in the test with NCI-H23. Further, the GI50 was 3.44 µM (inactive) in the test with SK-OV-3 and 4.66 µM (inactive) in the test with HT-29.
In the case of `c1ccc(CSc2nc(N3CCCCC3)c3cn[nH]c3n2)cc1`, the GI50 with CAKI-1 is 29.6 µM (inactive); in the test on HOP-92, 21.3 µM (inactive); in the test with EKVX, 20.3 µM (inactive); with HCC 2998 it was 18.7 µM (inactive); in the test with SNB-75, 20.7 µM (inactive); in the test with SK-MEL-5, 16.5 µM (inactive). Moreover, the GI50 was 26.9 µM (inactive) with MCF7; 33.2 µM in the test on HCT-15; 21.9 µM (inactive) with T47D; 30.1 µM (inactive) with TK-10; 25.2 µM (inactive) in the test on 786-0; 27.2 µM (inactive) in the test with ACHN. The GI50 in the test on OVCAR-4 was 36.1 µM (inactive); with HOP-62, 17.1 µM (inactive); with MDA-MB-435, 22.4 µM (inactive); with KM12, 14.7 µM (inactive); in the test on IGROV-1, 17.5 µM (inactive); with NCI-H23, 26.4 µM (inactive). In addition, the GI50 in the test on SK-OV-3 was 36.6 µM (inactive); in the test on HT-29, 31.8 µM (inactive).
Take `C[C@]12CC(c3ccccc3O1)C(C#N)C(=O)N2` (stereo partly drawn): the GI50 in the test on CAKI-1, in the test with HOP-92, in the test with EKVX, with HCC 2998, in the test on SNB-75 and with SK-MEL-5 was > 100 µM (inactive) in each case. For the same compound, the GI50 in the test on MCF7 is > 100 µM (inactive); in the test with HCT-15 it was greater than 100 µM; with T47D, > 100 µM (inactive); in the test on 786-0, > 100 µM (inactive); in the test on ACHN, > 100 µM (inactive); in the test with OVCAR-4, > 100 µM (inactive). The GI50 with HOP-62, in the test on MDA-MB-435, with KM12, in the test with IGROV-1, in the test with NCI-H23 and in the test with SK-OV-3 was > 100 µM (inactive) each time. For the same compound, the GI50 in the test with HT-29 was > 100 µM (inactive).
Turning to `Nc1nc(NCCCO)cc(=O)[nH]1`, the GI50 in the test on CAKI-1, in the test with HOP-92, with EKVX, with HCC 2998, in the test with SNB-75 and in the test on SK-MEL-5 was > 100 µM (inactive) each time. The GI50 in the test on MCF7 is > 100 µM (inactive); in the test with HCT-15 it was greater than 100 µM; in the test with T47D, > 100 µM (inactive); in the test on 786-0, > 100 µM (inactive); in the test with ACHN, > 100 µM (inactive); in the test on OVCAR-4, > 100 µM (inactive). Besides, the GI50 in the test with HOP-62, with MDA-MB-435, in the test with KM12, in the test on IGROV-1, in the test on NCI-H23 and in the test with SK-OV-3 was > 100 µM (inactive) in each case. For the same compound, the GI50 in the test on HT-29 is > 100 µM (inactive).

The term GI50 denotes the concentration giving 50% growth inhibition.
